# According to ChEMBL document CHEMBL3045597, “Antihyperglycemic, -glucosidase inhibitory and DPPH free radical scavenging activity of 5-bromosalicylaldehyde and schiff bases” (Med Chem Res, 2011):
# Activity calls are given as the source filed them. The calls are words filed in the database; no cut-off is given here.
# Test system: Rattus norvegicus
# Assay: Antihyperglycemic activity in starch fed Rattus norvegicus Wistar (rat) assessed as reduction of plasma glucose level at 50 mg/kg administered 15 min before starch feeding measured up to 60 min
# Format: functional, organism-based
# Design: dose 50 mg/kg
row,Compound,Activity
1,O=Cc1cc(Br)ccc1O,Active

# Target: Lysosomal alpha-glucosidase (Rattus norvegicus) (UniProt Q6P7A9)
# Assay: Inhibition of rat intestinal alpha-glucosidase using p-nitrophenyl- alpha-D-glucopyranoside as substrate at 200 uM preincubated for 5 min before addition of substrate measured after 10 min
# Chain of Lysosomal alpha-glucosidase (Rattus norvegicus) (Q6P7A9 whole entry): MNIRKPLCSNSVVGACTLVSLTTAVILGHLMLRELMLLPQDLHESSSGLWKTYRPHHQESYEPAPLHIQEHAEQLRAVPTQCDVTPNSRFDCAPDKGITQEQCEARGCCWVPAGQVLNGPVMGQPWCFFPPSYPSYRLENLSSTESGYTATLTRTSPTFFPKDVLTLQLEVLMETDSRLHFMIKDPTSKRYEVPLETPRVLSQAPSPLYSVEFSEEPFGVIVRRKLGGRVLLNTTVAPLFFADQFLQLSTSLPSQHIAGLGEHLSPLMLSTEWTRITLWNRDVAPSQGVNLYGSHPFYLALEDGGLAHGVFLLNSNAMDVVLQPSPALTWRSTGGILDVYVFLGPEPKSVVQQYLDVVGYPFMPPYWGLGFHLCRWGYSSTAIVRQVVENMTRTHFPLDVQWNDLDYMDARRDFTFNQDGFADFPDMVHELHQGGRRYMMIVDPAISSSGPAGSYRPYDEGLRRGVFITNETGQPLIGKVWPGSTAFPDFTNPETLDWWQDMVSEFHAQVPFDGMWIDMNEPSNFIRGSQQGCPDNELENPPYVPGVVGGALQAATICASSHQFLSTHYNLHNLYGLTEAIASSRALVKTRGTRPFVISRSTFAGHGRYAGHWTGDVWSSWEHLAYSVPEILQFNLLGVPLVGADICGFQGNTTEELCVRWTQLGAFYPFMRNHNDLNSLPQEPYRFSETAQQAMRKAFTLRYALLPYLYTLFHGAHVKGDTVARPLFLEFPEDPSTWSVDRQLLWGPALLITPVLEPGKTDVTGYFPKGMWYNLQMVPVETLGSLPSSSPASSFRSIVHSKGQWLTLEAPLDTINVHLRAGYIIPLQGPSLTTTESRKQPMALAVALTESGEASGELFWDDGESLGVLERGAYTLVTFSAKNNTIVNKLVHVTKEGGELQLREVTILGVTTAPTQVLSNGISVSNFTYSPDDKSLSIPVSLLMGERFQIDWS
row,Compound,inhibition
1,O=Cc1cc(Br)ccc1O,85.8%
2,C/C(=N\NC(=O)c1ccccc1)c1ccc(C)cc1,31.6%
3,COc1ccc(/N=C/c2cc(Br)ccc2O)cc1,Active
4,Oc1ccccc1/C=N\c1ccccc1/N=C/c1ccccc1O,57.9%
5,Oc1ccc(Br)cc1/C=N/c1ccc(Cl)cc1,inactive
6,Oc1ccc(Br)cc1/C=N/CC/N=C/c1cc(Br)ccc1O,14.4%
7,O=[N+]([O-])c1ccc(/N=C/c2cc(Br)ccc2O)cc1,Active
8,C/C(=N\CC/N=C(\C)c1ccccc1)c1ccccc1,Active

# Now from value to compound:
row,inhibition,Compound
1,Active,Oc1ccccc1/C=N/c1ccccc1
2,Active,Oc1ccc(Br)cc1/C=N/c1ccccc1
3,6.63%,Oc1ccccc1/C=N/c1ccc(Cl)cc1
4,95.6%,O=[N+]([O-])c1ccc(/N=C/c2ccccc2O)cc1
5,29.1%,Oc1ccccc1/C=N/CC/N=C/c1ccccc1O
6,11.4%,COc1ccc(/N=C/c2ccccc2O)cc1

# Test system: Radical scavenging activity
# Assay: Antioxidant activity assessed as DPPH free radical scavenging activity at 250 uM after 20 min
# Format: functional
row,Compound,Activity
1,Oc1ccccc1/C=N/c1ccccc1,9.29%
2,Oc1ccc(Br)cc1/C=N/c1ccccc1,9.27%
3,Oc1ccccc1/C=N/c1ccc(Cl)cc1,inactive
4,COc1ccc(/N=C/c2cc(Br)ccc2O)cc1,48.7%
5,O=[N+]([O-])c1ccc(/N=C/c2ccccc2O)cc1,inactive
6,Oc1ccccc1/C=N\c1ccccc1/N=C/c1ccccc1O,75.3%
7,Oc1ccc(Br)cc1/C=N/c1ccc(Cl)cc1,13.5%
8,Oc1ccc(Br)cc1/C=N/CC/N=C/c1cc(Br)ccc1O,inactive
9,O=[N+]([O-])c1ccc(/N=C/c2cc(Br)ccc2O)cc1,inactive
10,Oc1ccccc1/C=N/CC/N=C/c1ccccc1O,inactive

# Test system: Rattus norvegicus
# Assay: Antihyperglycemic activity in starch fed Rattus norvegicus Wistar (rat) assessed as reduction of AUC of plasma glucose level at 50 mg/kg administered 15 min before starch feeding
# Format: functional, organism-based
# Design: dose 50 mg/kg
row,Compound,Activity
1,O=Cc1cc(Br)ccc1O,Active

# Test system: Radical scavenging activity
# Assay: Antioxidant activity assessed as DPPH free radical scavenging activity by measuring 50% radical scavenging concentration after 20 min
# Format: functional
row,Compound,Activity [µM]
1,Oc1ccccc1/C=N\c1ccccc1/N=C/c1ccccc1O,115

# Target: Lysosomal alpha-glucosidase (Rattus norvegicus) (UniProt Q6P7A9)
# Assay: Inhibition of rat intestinal alpha-glucosidase using p-nitrophenyl- alpha-D-glucopyranoside as substrate at 300 uM preincubated for 5 min before addition of substrate measured after 10 min
row,inhibition [%],Compound
1,85.8,O=Cc1cc(Br)ccc1O
